Laboratory results taken from the NIST ThermoML archive (doi:10.1021/je060271a).
Several values for one entry are separate records, joined by “and”; a condition that tells them apart may be missing. Identical values can stand only once. ± gives the expanded uncertainty stated by the source.

Conditions: 303.16 K, Liquid, Vibrating tube method

CCCCCC(=O)OCC(COC(=O)CCCCC)(COC(=O)CCCCC)COC(=O)CCCCC [pentaerythritol tetrahexanoate]
Conditions | mass density
291.9 kPa | 988.7 ± 1.2 kg/m3
292.2 kPa | 988.5 ± 1.2 kg/m3
292.6 kPa | 988.6 ± 1.2 kg/m3
292.9 kPa | 988.6 ± 1.2 kg/m3
297.1 kPa | 988.4 ± 1.2 kg/m3
297.8 kPa | 988.5 ± 1.2 kg/m3
298.1 kPa | 988.6 ± 1.2 kg/m3
298.5 kPa | 988.5 ± 1.2 kg/m3
298.7 kPa | 988.6 ± 1.2 kg/m3
299.2 kPa | 988.5 ± 1.2 kg/m3
299.3 kPa | 988.6 ± 1.2 kg/m3
299.9 kPa | 988.4 ± 1.2 kg/m3 and 988.6 ± 1.2 kg/m3
300.4 kPa | 988.6 ± 1.2 kg/m3
300.7 kPa | 988.6 ± 1.2 kg/m3
301.1 kPa | 988.6 ± 1.2 kg/m3
301.2 kPa | 988.6 ± 1.2 kg/m3
301.6 kPa | 988.6 ± 1.2 kg/m3
302 kPa | 988.5 ± 1.2 kg/m3
302.1 kPa | 988.5 ± 1.2 kg/m3
302.7 kPa | 988.6 ± 1.2 kg/m3
303 kPa | 988.5 ± 1.2 kg/m3
303.2 kPa | 988.5 ± 1.2 kg/m3
303.7 kPa | 988.5 ± 1.2 kg/m3
303.9 kPa | 988.6 ± 1.2 kg/m3
304.2 kPa | 988.5 ± 1.2 kg/m3
304.5 kPa | 988.6 ± 1.2 kg/m3
304.7 kPa | 988.6 ± 1.2 kg/m3
305.1 kPa | 988.5 ± 1.2 kg/m3
306.3 kPa | 988.5 ± 1.2 kg/m3
306.6 kPa | 988.6 ± 1.2 kg/m3
307 kPa | 988.6 ± 1.2 kg/m3
307.3 kPa | 988.6 ± 1.2 kg/m3
307.8 kPa | 988.5 ± 1.2 kg/m3
307.9 kPa | 988.5 ± 1.2 kg/m3
308.2 kPa | 988.5 ± 1.2 kg/m3
308.7 kPa | 988.6 ± 1.2 kg/m3
309.1 kPa | 988.5 ± 1.2 kg/m3
309.4 kPa | 988.6 ± 1.2 kg/m3
309.8 kPa | 988.5 ± 1.2 kg/m3
310.1 kPa | 988.5 ± 1.2 kg/m3
310.8 kPa | 988.5 ± 1.2 kg/m3
311 kPa | 988.5 ± 1.2 kg/m3
311.3 kPa | 988.6 ± 1.2 kg/m3
311.7 kPa | 988.6 ± 1.2 kg/m3
311.9 kPa | 988.5 ± 1.2 kg/m3
312.2 kPa | 988.6 ± 1.2 kg/m3
312.5 kPa | 988.6 ± 1.2 kg/m3
313.6 kPa | 988.6 ± 1.2 kg/m3
314.6 kPa | 988.6 ± 1.2 kg/m3
315.8 kPa | 988.6 ± 1.2 kg/m3
316.7 kPa | 988.5 ± 1.2 kg/m3
317.1 kPa | 988.4 ± 1.2 kg/m3
317.2 kPa | 988.6 ± 1.2 kg/m3
317.4 kPa | 988.5 ± 1.2 kg/m3
317.9 kPa | 988.5 ± 1.2 kg/m3
318.1 kPa | 988.6 ± 1.2 kg/m3
318.5 kPa | 988.6 ± 1.2 kg/m3
318.6 kPa | 988.6 ± 1.2 kg/m3
318.8 kPa | 988.5 ± 1.2 kg/m3
319 kPa | 988.5 ± 1.2 kg/m3
319.3 kPa | 988.5 ± 1.2 kg/m3
319.5 kPa | 988.5 ± 1.2 kg/m3
319.8 kPa | 988.5 ± 1.2 kg/m3
320.4 kPa | 988.5 ± 1.2 kg/m3
320.9 kPa | 988.5 ± 1.2 kg/m3
321.2 kPa | 988.5 ± 1.2 kg/m3
321.9 kPa | 988.6 ± 1.2 kg/m3
322.3 kPa | 988.6 ± 1.2 kg/m3
324.7 kPa | 988.5 ± 1.2 kg/m3
325.6 kPa | 988.6 ± 1.2 kg/m3
326.1 kPa | 988.6 ± 1.2 kg/m3
326.6 kPa | 988.4 ± 1.2 kg/m3 and 988.6 ± 1.2 kg/m3
327 kPa | 988.6 ± 1.2 kg/m3
327.1 kPa | 988.6 ± 1.2 kg/m3
327.3 kPa | 988.6 ± 1.2 kg/m3
327.7 kPa | 988.6 ± 1.2 kg/m3
328.4 kPa | 988.5 ± 1.2 kg/m3
328.9 kPa | 988.6 ± 1.2 kg/m3
329.1 kPa | 988.6 ± 1.2 kg/m3
333.2 kPa | 988.6 ± 1.2 kg/m3
333.9 kPa | 988.6 ± 1.2 kg/m3
339.3 kPa | 988.7 ± 1.2 kg/m3
339.7 kPa | 988.6 ± 1.2 kg/m3
340.3 kPa | 988.7 ± 1.2 kg/m3
341 kPa | 988.6 ± 1.2 kg/m3
344.3 kPa | 988.5 ± 1.2 kg/m3
344.5 kPa | 988.7 ± 1.2 kg/m3
344.7 kPa | 988.6 ± 1.2 kg/m3
345.2 kPa | 988.6 ± 1.2 kg/m3
345.5 kPa | 988.6 ± 1.2 kg/m3
346.2 kPa | 988.5 ± 1.2 kg/m3
346.6 kPa | 988.7 ± 1.2 kg/m3
346.9 kPa | 988.6 ± 1.2 kg/m3
347.3 kPa | 988.5 ± 1.2 kg/m3
347.6 kPa | 988.6 ± 1.2 kg/m3
348.2 kPa | 988.7 ± 1.2 kg/m3
348.7 kPa | 988.6 ± 1.2 kg/m3
349.2 kPa | 988.5 ± 1.2 kg/m3 and 988.6 ± 1.2 kg/m3
349.4 kPa | 988.6 ± 1.2 kg/m3
349.9 kPa | 988.5 ± 1.2 kg/m3
350.6 kPa | 988.5 ± 1.2 kg/m3
350.9 kPa | 988.6 ± 1.2 kg/m3
351.5 kPa | 988.7 ± 1.2 kg/m3 and 988.6 ± 1.2 kg/m3
352 kPa | 988.6 ± 1.2 kg/m3
352.8 kPa | 988.6 ± 1.2 kg/m3
353.2 kPa | 988.8 ± 1.2 kg/m3 and 988.5 ± 1.2 kg/m3
353.4 kPa | 988.6 ± 1.2 kg/m3
353.5 kPa | 988.6 ± 1.2 kg/m3
354.1 kPa | 988.7 ± 1.2 kg/m3
354.2 kPa | 988.6 ± 1.2 kg/m3
354.6 kPa | 988.6 ± 1.2 kg/m3
354.9 kPa | 988.6 ± 1.2 kg/m3
358.1 kPa | 988.6 ± 1.2 kg/m3
358.4 kPa | 988.7 ± 1.2 kg/m3
358.9 kPa | 988.6 ± 1.2 kg/m3
359.4 kPa | 988.6 ± 1.2 kg/m3
359.8 kPa | 988.6 ± 1.2 kg/m3
360.3 kPa | 988.6 ± 1.2 kg/m3 and 988.5 ± 1.2 kg/m3
364.5 kPa | 988.6 ± 1.2 kg/m3
365 kPa | 988.7 ± 1.2 kg/m3
365.2 kPa | 988.5 ± 1.2 kg/m3
365.9 kPa | 988.7 ± 1.2 kg/m3
366.2 kPa | 988.7 ± 1.2 kg/m3
366.6 kPa | 988.7 ± 1.2 kg/m3
367.3 kPa | 988.8 ± 1.2 kg/m3
367.6 kPa | 988.6 ± 1.2 kg/m3
368 kPa | 988.6 ± 1.2 kg/m3
368.3 kPa | 988.6 ± 1.2 kg/m3
368.6 kPa | 988.7 ± 1.2 kg/m3
369.5 kPa | 988.6 ± 1.2 kg/m3
369.9 kPa | 988.6 ± 1.2 kg/m3
370 kPa | 988.5 ± 1.2 kg/m3
370.2 kPa | 988.6 ± 1.2 kg/m3
371.1 kPa | 988.6 ± 1.2 kg/m3
371.3 kPa | 988.6 ± 1.2 kg/m3
371.6 kPa | 988.7 ± 1.2 kg/m3
372.1 kPa | 988.7 ± 1.2 kg/m3
372.5 kPa | 988.5 ± 1.2 kg/m3
373 kPa | 988.6 ± 1.2 kg/m3
373.5 kPa | 988.7 ± 1.2 kg/m3
374.2 kPa | 988.6 ± 1.2 kg/m3
374.6 kPa | 988.6 ± 1.2 kg/m3
374.9 kPa | 988.6 ± 1.2 kg/m3
375.4 kPa | 988.7 ± 1.2 kg/m3
